One compound from article PMC8635125, “A Novel Dibenzoxazepine Attenuates Intracellular Salmonella Typhimurium Oxidative Stress Resistance” (Microbiology Spectrum, 2021) can be followed below.

What is called viability is a read-out of living cells in per cent, often relative to untreated cells.

Structures are written as SMILES. Like-named read-outs stand apart in the source and are kept apart here.

The test system of assay [1] is intracellular S. Typhimurium in RAW264.7 cells. In words: CFU assay of bacterial growth in macrophages. The class given is cell-based, Salmonella enterica serovar Typhimurium. As to conditions: submicromolar concentrations, with gentamicin 20 mg/L, 24 h. On the procedure:
Overnight cultures of S. Typhimurium were diluted 1:100 in fresh LB broth and incubated for 2 h at 37°C. The bacteria were then collected and suspended in PBS to an OD600 of 0.6. RAW264.7 cells seeded in a 6-well plate were infected with S. Typhimurium at an MOI of 25 for 1 h. After infection, the cells were washed, exposed to 100 mg/L gentamicin for 1 h, and treated with SW14 (0.25 to 1 μM) in combination with 20 mg/L gentamicin for 24 h. Then, the infected cells were washed and lysed with 0.1% Triton X-100 in PBS for 10 min at 37°C to release the intracellular bacteria. The cell lysates were serially diluted in PBS, spread on LB agar plates, and incubated at 37°C for 18 h. The bacterial colonies on the plates were enumerated and expressed as CFU.

Assay [2] deals with intracellular S. Typhimurium in RAW264.7 macrophages. In words: microbe, parasite or virus in culture. The class given is cell-based, Salmonella enterica serovar Typhimurium. As to conditions: for viability at 0.5 µM: TYPHIMURIUM, RAW264.7, read-out: viability of intracellular Salmonella compared to mock-treated cells. Here is the method:
(§1) Overnight cultures of RFP-expressing S. Typhimurium were prepared for infection by 1:100 dilution in fresh LB broth and incubation for 2 h at 37°C. The bacteria were then collected by centrifugation at 6,000 × g for 3 min and suspended in phosphate-buffered saline (PBS; pH 7.2) to an optical density of 0.6 at 600 nm, which was equivalent to 5 × 10^8 CFU/mL. RAW264.7 macrophages were seeded in 96-well black clear-bottom plates (Greiner) and incubated for 20 h followed by infection with RFP-expressing S. Typhimurium at a multiplicity of infection (MOI) of 50 for 1 h. […] Afterward, the cells were washed and stained with CellTracker Green (Thermo Fisher Scientific) for 30 min in serum-free DMEM followed by fixation in 3.7% formaldehyde (Sigma-Aldrich) for 20 min and stained with 0.2 mg/L DAPI (4′,6-diamidino-2-phenylindole; AAT Bioquest) for 30 min. Images of individual wells were captured and analyzed using a high-content imaging system (ImageXpress Micro 4; Molecular Devices). The CC50 and 50% effective concentration (EC50) values against intracellular bacteria of each compound were determined using CalcuSyn software (Biosoft).

Assay [3] relates to ROS levels in Salmonella-infected RAW264.7 cells. In words: Analysis of ROS in macrophages (H2DCFDA). Format: cell-based, murine. The conditions noted are these: 1 h; SW14 at concentrations up to 8 μM. Here is the method:
RAW264.7 macrophages were seeded in 96-well black plates and infected by S. Typhimurium ATCC 14028 at an MOI of 25 for 1 h. After infection, the cells were washed, exposed to 100 mg/L gentamicin for 1 h, washed with warm Krebs-Ringer phosphate buffer (KRP buffer; 120 mM NaCl, 5 mM KCl, 1.7 mM KH2PO4, 8.3 mM Na2HPO4, 10 mM glucose, 1 mM CaCl2, 1.5 mM MgCl2, pH 7.3) and stained with H2DCFDA at 37°C with 5% CO2 for 45 min. The cells were then washed with KRP buffer and treated with SW14 or PMA at the desired concentrations in KRP buffer with 10% FBS. Fluorescence signals at 488/525 nm (excitation/emission) were measured using a SpectraMax M5 Microplate Reader (Molecular Devices).

In assay [4] the test system is multidrug-resistant S. Typhimurium isolates 0911R and NL08.10 in RAW264.7 cells. In words: HCA of intracellular multidrug-resistant isolates in macrophages. The class given is cell-based, Salmonella enterica serovar Typhimurium. As to conditions: 0911R and NL08.10, gentamicin, 24 h. Here is the method: as §1
The test system of assay [5] is S. Typhimurium ATCC 14028. Briefly: Efflux pump activity (Hoechst 33342 accumulation assay). The class given is cell-based, Salmonella enterica serovar Typhimurium. The conditions noted are these: data not shown in text; Fig. S2. On the procedure:
Figure S2. The accumulation of Hoechst 33342 in S. Typhimurium ATCC 14028 treated
with escalated concentrations of SW14 for 1 h in the LPM medium was measured using a
fluorescence microplate reader. The data are presented as the mean ± SD (n = 3 per group).
ns: non-significant, P > 0.05; ***P < 0.001; ****P < 0.0001.
Hoechst 33342 accumulation assay
Overnight-grown S. Typhimurium cultured in LB medium was diluted 1:50 in LPM
medium and incubated at 37°C for 3 h. The bacterial suspension was adjusted to an OD600
of 0.1 in fresh LPM medium supplemented with 2.5 µM Hoechst 33342 (Thermo Fisher
Scientific) followed by treatment of mock (DMSO) or SW14 (0.03125 – 8 µM in DMSO)
for 1 h. Bacterial cells which were treated with high temperature (90° C) for 10 min (heat-
killed) rapidly accumulated Hoechst 33342 and served as positive control. Fluorescence
was monitored on a SpectraMax M5 (Molecular devices) with a 355 nm excitation filter
and 460 nm emission filter. The percent inhibition was calculated by the equation: 100 ´
[(SW14-treated – mock) / (Heat-killed – mock)].

The test system of assay [6] is S. Typhimurium 0911R. Briefly: microbe, parasite or virus in culture. The conditions noted are these: Salmonella enterica, TYPHIMURIUM
The class given is cell-based, Salmonella Typhimurium. On the procedure: (§2) The minimal inhibitory concentration (MIC) of each test compound against the individual bacterial strains was determined by the broth microdilution method following the guidelines recommended by the Clinical and Laboratory Standards Institute (CLSI) ([27]).

Assay [7] concerns ciprofloxacin-resistant S. Typhimurium strains SA10 and SB10 in RAW264.7 cells. Briefly: HCA of intracellular ciprofloxacin-resistant strains in macrophages. Format: cell-based, Salmonella enterica serovar Typhimurium. As to conditions: SA10 and SB10, gentamicin, 24 h. On the procedure:
as §1

Assay [8] deals with S. Typhimurium. In words: Bacterial growth assay (OD600). As to conditions: for concentration inhibiting bacterial growth (OD600): 24 h. Format: cell-based, Salmonella enterica serovar Typhimurium. On the procedure: Overnight-grown S. […] The plate was incubated at 37°C, and bacterial growth was monitored by measuring the absorbance at 600 nm with a VersaMax Microplate reader (Molecular Devices) at designated times for 24 h.

Assay [9] deals with S. Typhimurium SB10. Briefly: MIC assay (broth microdilution). Format: cell-based, Salmonella Typhimurium. As to conditions: Salmonella enterica, TYPHIMURIUM
Here is the method:
as §2

Assay [10] relates to S. Typhimurium NL08.10. Briefly: MIC assay (broth microdilution). The class given is cell-based, Salmonella Typhimurium. The conditions noted are these: Salmonella enterica, TYPHIMURIUM
On the procedure:
as §2

For assay [11], the system named is S. Typhimurium ATCC 14028. In words: MIC assay (broth microdilution). The class given is cell-based, Salmonella Typhimurium. Here is the method:
as §2
A general note: Dilution methods test growth across graded concentrations, often in twofold steps.

Assay [12] deals with S. Typhimurium SA10. Briefly: MIC assay (broth microdilution). Format: cell-based, Salmonella Typhimurium. As to conditions: Salmonella enterica, TYPHIMURIUM; Table S1(B), SA10. On the procedure:
as §2

As for `Clc1ccc2c(c1)C(NCCN1CCNCC1)=Nc1ccccc1O2` [SW14], the “viability of intracellular Salmonella (CFU assay)” value in assay [1] is “potent suppressive effect”. The “inhibitory activity of ciprofloxacin and cefixime on intracellular Salmonella in combination with SW14” value in assay [2] (0.5 μM SW14, 24 h, equal to the antibiotic at 2-fold concentration) is “enhanced”. In assay [2] (CC50 RAW264.7 / EC50 intracellular Salmonella), the “selectivity index (SI; CC50/EC50)” value is 47. In [2] (RAW264.7 shATG7 clones vs empty vector, 24 h), the “susceptibility of intracellular Salmonella to SW14 after Atg7 knockdown” value is reported as “more susceptible”. In addition, the viability at 0.5 µM was 36.8% in [2] (Salmonella enterica, 3-MA 10 mM for 1 h, then SW14 0.5 μM for 24 h, HCA) and 45% in assay [2] (Salmonella enterica, SW14 0.5 μM alone, 24 h, HCA). For the same compound, in assay [2] (Salmonella enterica, RFP-expressing S. Typhimurium in RAW264.7, 24 h, with gentamicin 20 mg/L, HCA, read-out: 50% effective concentration (EC50) against intracellular Salmonella), the EC50 was found to be 0.5 µM. Also, in assay [2] (with NAC 10 mM or GSH 10 mM), the “suppressive effect on intracellular S. Typhimurium in the presence of ROS scavengers” value is “reversed”. Moreover, in assay [3], the “ROS level (H2DCFDA fluorescence signal) in infected macrophages” value is listed as “did not observe any significant change”. Moreover, the “intracellular replication of MDR S. Typhimurium isolates” value in assay [4] is “remained susceptible”. For the same compound, the “efflux pump activity in S. Typhimurium” value in assay [5] is “efflux pump suppressive effect”. The MIC in assay [6] is more than 64 µg/mL; in assay [9], more than 64 µg/mL; in assay [10], more than 64 µg/mL; in assay [11] (Salmonella enterica), more than 64 µg/mL; in assay [11] (Table S1(B), ATCC 14028) it was more than 64 µg/mL; in assay [12] it was more than 64 µg/mL. The “intracellular proliferation of ciprofloxacin-resistant isolates” value in assay [7] is listed as “highly sensitive”. The “concentration inhibiting bacterial growth (OD600)” value in assay [8] (Luria-Bertani (LB) medium) and in assay [8] (cell culture medium (DMEM + 10% FBS)) was more than 64 µM throughout. Moreover, the “growth of Salmonella in LPM medium” value in assay [8] (acidic low-phosphate, low-magnesium (LPM) medium) is on record as “unable to detect any significant change”. Besides, the “concentration inhibiting bacterial growth in broth” value in [8] (broth) is more than 64 µM.
